Experimental data taken from patent US20060100431A1, “Biologically active compounds” (Amura Therapeutics Limited, priority 2002, published 2006).
pKi: −log10 of the molar value.

What was measured:
Assay type in all cases: biochemical
Bovine cathepsin S = molecular target: T1, Bovine cathepsin S (Bos taurus, UniProt P25326); experiment: Cathepsin S peptidase activity assay, bovine enzyme (Ki); details: species of cathepsin S not given; read-out: Ki, inhibitors of cathepsin S
T1 construct: purchased CN Biosciences
T1 sequence (P25326 115-331): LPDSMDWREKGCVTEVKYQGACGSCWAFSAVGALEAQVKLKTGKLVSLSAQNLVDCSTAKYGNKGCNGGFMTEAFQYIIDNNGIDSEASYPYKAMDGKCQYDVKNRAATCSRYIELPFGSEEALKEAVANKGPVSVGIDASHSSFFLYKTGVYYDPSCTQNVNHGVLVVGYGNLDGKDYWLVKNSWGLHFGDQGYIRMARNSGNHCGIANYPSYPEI
Procedure: Unless otherwise stated, all general chemicals and biochemicals were purchased from either the Sigma Chemical Company, Poole, Dorset, U.K or from Fisher Scientific UK, Loughborough, Leicestershire, U.K. Absorbance assays were carried out in flat-bottomed 96-well plates (Spectra; Greiner Bio-One Ltd., Stonehouse, Gloucestershire, U.K.) using a SpectraMax PLUS384 plate reader (Molecular Devices, Crawley, U.K.). Fluorescence high throughput assays were carried out in either 384-well microtitre plates (Corning Costar 3705 plates, Fisher Scientific) or 96-well ‘U’ bottomed Microfluor W1 microtitre plates (Thermo Labsystems, Ashford, Middlesex, U.K.). Fluorescence assays were monitored using a SpectraMax Gemini fluorescence plate reader (Molecular Devices). For substrates employing either a 7-amino-4-methylcoumarin (AMC) or a 7-amino-4-trifluoromethylcoumarin (AFC) fluorophore, assays were monitored at an excitation wavelength of 365 nm and an emission wavelength of 450 nm and the fluorescence plate reader calibrated with AMC. For substrates employing a 3-amino-benzoyl (Abz) fluorophore, assays were monitored at an excitation wavelength of 310 nm and an emission wavelength of 445 nm; the fluorescence plate reader calibrated with 3-amino-benzamide (Fluka). Unless otherwise indicated, all the peptidase substrates were purchased from Bachem UK, St Helens, Merseyside, UK. Substrates utilizing fluorescence resonance energy transfer methodology (i.e. FRET-based substrates) were synthesized at Incenta Limited using published methods (Atherton & Sheppard, Solid Phase Peptide Synthesis, IRL Press, Oxford, U.K, 1989) and employed Abz (2-aminobenzoyl) as the fluorescence donor and 3-nitro-tyrosine [Tyr(NO2)] as the fluorescence quencher (Meldal, M. and Breddam, K., Anal. Biochem, 195, 141-147, 1991). Hydroxyethylpiperazine ethanesulfonate (HEPES), tris-hydroxylmethyl aminomethane (tris) base, bis-tris-propane and all the biological detergents (e.g. CHAPS, zwittergents, etc.) were purchased from CN Biosciences UK, Beeston, Nottinghamshire, U.K. Glycerol was purchased from Amersham Pharmacia Biotech, Little Chalfont, Buckinghamshire, U.K. Stock solutions of substrate or inhibitor were made up to 10 mM in 100% dimethylsulfoxide (DMSO) (Rathburns, Glasgow, U.K.) and diluted as appropriately required. In all cases the DMSO concentration in the assays was maintained at less than 1% (vol./vol.).
Assay protocols were based on literature precedent (Table 4; Barrett, A. J., Rawlings, N. D. and Woessner, J. F., 1998, Handbook of Proteolytic Enzymes, Academic Press, London and references therein) and modified as required to suit local assay protocols. Enzyme was added as required to initiate the reaction and the activity, as judged by the change in fluorescence upon conversion of substrate to product, was monitored over time. All assays were carried out at 25±1° C.
Bovine cathepsin S, human cathepsin L, human cathepsin H and human cathepsin B were obtained from CN Biosciences. Recombinant human cathepsin S, human cathepsin K and human cathepsin X were obtained from Dr. Boris Turk (Josef Stefan Institute, Ljubljana, Slovenia). Unless otherwise stated, all peptidase activity assays were carried out in 10 mM bis-tris-propane (BTP), pH 6.5 containing 1 mM EDTA, 5 mM 2-mercaptoethanol and 1 mM CaCl2. Human cathepsin H activity assays were carried out in 10 mM BTP pH 6.5, 142 mM NaCl2, 1 mM CaCl2, 1 mM EDTA, 1 mM DTT, 0.035 mM Zwittergent 3-16. Human cathepsin K assays were carried out in 100 mM sodium acetate; pH 5.5 containing 20 mM L-cysteine and 1 mM EDTA (Bossard, M. J., et. al., J. Biol. Chem., 21, 12517-12524, 1996). Human cathepsin X assays were carried out in 100 mM sodium acetate; pH 5.5 containing 20 mM L-cysteine; 0.05% (w/v) Brij 35 and 1 mM EDTA (Santamaria, I., et. al., J. Biol. Chem., 273, 16816-16823, 1998; Klemencic, J, et al., Eur. J. Biochem., 267, 5404-5412, 2000).

Wild-type cruzipain = Wild-type cruzipain (Trypanosoma cruzi, UniProt P25779); experiment: Trypanosoma cruzi cruzipain peptidase activity assay (Ki); details: read-out: Ki, inhibitors of cruzain and cruzipains
Wild-type cruzipain, sequence (P25779 whole entry): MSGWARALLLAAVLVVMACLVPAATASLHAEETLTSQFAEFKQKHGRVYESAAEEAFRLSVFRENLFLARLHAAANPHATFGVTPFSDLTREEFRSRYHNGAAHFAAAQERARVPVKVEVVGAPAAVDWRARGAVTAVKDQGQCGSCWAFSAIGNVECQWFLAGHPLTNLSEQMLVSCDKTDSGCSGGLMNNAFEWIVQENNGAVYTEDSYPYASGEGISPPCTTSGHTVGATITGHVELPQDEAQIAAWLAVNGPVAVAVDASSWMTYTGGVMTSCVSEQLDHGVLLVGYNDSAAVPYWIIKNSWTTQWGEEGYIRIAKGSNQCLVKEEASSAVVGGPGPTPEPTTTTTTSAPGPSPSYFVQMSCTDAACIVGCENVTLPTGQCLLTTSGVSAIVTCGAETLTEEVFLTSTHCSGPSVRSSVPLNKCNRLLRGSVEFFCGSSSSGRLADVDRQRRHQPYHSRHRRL
Method in brief: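 Native cruzipain from T. cruzi Dm28 epimastigotes, 2.5 nM, in 100 mM sodium phosphate pH 6.75 with 1 mM EDTA and 10 mM L-cysteine, 25 °C, DMSO <1%. Rates taken from continuous fluorogenic substrate read; Ki by regression assuming reversible pure-competitive inhibition.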

human cathepsin L = molecular target: T2, human cathepsin L (Homo sapiens, UniProt P07711); experiment: Cathepsin L peptidase activity assay (Ki); details: read-out: Ki, inhibitors of cathepsin L
T2 construct: purchased CN Biosciences
T2 sequence (P07711 114-333): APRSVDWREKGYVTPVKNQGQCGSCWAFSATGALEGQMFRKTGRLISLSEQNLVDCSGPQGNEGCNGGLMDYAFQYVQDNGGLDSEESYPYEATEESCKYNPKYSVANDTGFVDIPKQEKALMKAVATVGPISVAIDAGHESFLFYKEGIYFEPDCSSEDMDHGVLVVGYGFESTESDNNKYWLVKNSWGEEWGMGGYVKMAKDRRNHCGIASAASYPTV
Method in brief: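 Run at 25±1° C with DMSO under 1%: buffer was 10 mM BTP pH 6.5 containing 1 mM EDTA, 1 mM CaCl2 and 5 mM 2-mercaptoethanol. Enzyme (1 nM cathepsin L) was added last to start hydrolysis of Ac-Phe-Arg-AMC held at KM^app (~20 μM), followed kinetically by fluorescence at 365/450 nm.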

CPB2.8ΔCTE = molecular target: T3, CPB2.8ΔCTE (Leishmania mexicana, UniProt P36400); experiment: Leishmania mexicana cysteine protease B (CPB) peptidase activity assay (Ki); details: Ki, inhibitors of Leismania mexicana CPB protease
T3 construct: Wild-type recombinant CPB without the C-terminal extention (i.e. CPB2.8ΔCTE); Dr. Jeremy Mottram (Wellcome Centre for Molecular Parasitology, University of Glasgow)
T3 sequence (P36400 126-343, stated change not applied): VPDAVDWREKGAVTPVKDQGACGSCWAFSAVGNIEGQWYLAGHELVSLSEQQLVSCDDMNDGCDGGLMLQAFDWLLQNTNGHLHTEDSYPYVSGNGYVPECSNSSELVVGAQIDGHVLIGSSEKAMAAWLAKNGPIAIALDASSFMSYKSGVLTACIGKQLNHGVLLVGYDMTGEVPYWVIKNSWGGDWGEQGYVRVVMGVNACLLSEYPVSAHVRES
Method in brief: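 Apparent Ki was derived by regression of activity against inhibitor concentration, assuming pure-competitive reversible binding. Reaction: 0.25 nM CPB lacking the C-terminal extension, pH 5.5 acetate buffer (1 mM EDTA, 200 mM NaCl, 10 mM DTT), 25 °C, followed by continuous substrate fluorescence.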

Row | SMILES | pKi (Bovine cathepsin S) | pKi (Wild-type cruzipain) | pKi (human cathepsin L) | pKi (CPB2.8ΔCTE)
1 | O=C(N[C@@H](Cc1ccc(O)cc1)C(=O)N1CC[C@@H]2[C@H]1C(=O)CN2C(=O)c1ccccc1)c1cccc(Cl)c1 [Example 334, (3aR,6aS)-N-[(1S)-2-(4-Benzoyl-6-oxo-hexahydro-pyrrolo[3,2-b]pyrrol-1-yl)-1-(4-hydroxy-benzyl)-2-oxo-ethyl]-3-chloro-benzamide] | > 5.30 | > 5.30 |  | 
2 | COc1cccc(C(=O)N2CC(=O)[C@@H]3[C@H]2CCN3C(=O)[C@H](CC(C)C)NC(=O)c2ccc(N(C)C)cc2)c1 [Example 65, (3aR,6aS)-4-Dimethylamino-N-{(1S)-1-[4-(3-methoxy-benzoyl)-6-oxo-hexahydro-pyrrolo[3,2-b]pyrrole-1-carbonyl]-3-methyl-butyl}-benzamide] | > 5.30 | > 5.30 | > 5.30 | > 5.30
3 | Cc1ccc(C(=O)N[C@@H](CC(C)C)C(=O)N2CC[C@@H]3[C@H]2C(=O)CN3C(=O)c2ccccc2)cc1 [Example 170] | > 5.30 | > 5.30 | > 5.30 | > 5.30
4 | CC(C)C[C@H](NC(=O)c1cccc(Br)c1)C(=O)N1CC[C@@H]2[C@H]1C(=O)CN2C(=O)c1ccccc1 [Example 340, (3aR,6aS)-N-[(1S)-1-(4-Benzoyl-6-oxo-hexahydro-pyrrolo[3,2-b]pyrrole-1-carbonyl)-3-methyl-butyl]-3-bromo-benzamide] | > 5.30 |  |  | 
5 | CC(C)C[C@H](NC(=O)c1cccc(Oc2ccccc2)c1)C(=O)N1CC[C@@H]2[C@H]1C(=O)CN2C(=O)c1ccccc1 [Example 13, (3aR,6aS)-N-[(1S)-1-(4-Benzoyl-6-oxo-hexahydro-pyrrolo[3,2-b]pyrrole-1-carbonyl)-3-methyl-butyl]-3-phenoxy-benzamide] | > 5.30 | > 5.30 |  | > 5.30
6 | Cc1c(C(=O)N[C@@H](CC(C)C)C(=O)N2CC[C@@H]3[C@H]2C(=O)CN3C(=O)c2ccccc2)oc2ccccc12 [Example 10, (3aR,6aS)-3-Methyl-benzofuran-2-carboxylic acid [(1S)-1-(4-benzoyl-6-oxo-hexahydro-pyrrolo[3,2-b]pyrrole-1-carbonyl)-3-methyl-butyl]-amide] | > 5.30 | > 5.30 | > 5.30 | 
7 | O=C(N[C@@H](Cc1ccc(O)cc1)C(=O)N1CC[C@@H]2[C@H]1C(=O)CN2C(=O)c1ccccc1)c1cccc(F)c1 [Example 335, (3aR,6aS)-N-[(1S)-2-(4-Benzoyl-6-oxo-hexahydro-pyrrolo[3,2-b]pyrrol-1-yl)-1-(4-hydroxy-benzyl)-2-oxo-ethyl]-3-fluoro-benzamide] | > 5.30 | > 5.30 |  | 
8 | O=C(N[C@@H](CC1CC1)C(=O)N1CC[C@@H]2[C@H]1C(=O)CN2C(=O)c1ccccc1)c1ccsc1 [Example 187, (3aR,6aS)-Thiophene-3-carboxylic acid [(1S)-2-(4-benzoyl-6-oxo-hexahydro-pyrrolo[3,2-b]pyrrole-1-yl)-1-cyclopropylmethyl-2-oxo-ethyl]-amide] | > 5.30 |  |  | 
9 | O=C(N[C@@H](Cc1ccc(O)cc1)C(=O)N1CC[C@@H]2[C@H]1C(=O)CN2C(=O)c1ccccc1)c1ccc2ncsc2c1 [Example 317, (3aR,6aS)-Benzothiazole-6-carboxylic acid [(1S)-2-(4-benzoyl-6-oxo-hexahydro-pyrrolo[3,2-b]pyrrole-1-yl)-1-(4-hydroxy-benzyl)-2-oxo-ethyl]-amide] | > 5.30 | > 5.30 |  | 
10 | CC(C)C[C@H](NC(=O)c1cnc2ccccc2n1)C(=O)N1CC[C@@H]2[C@H]1C(=O)CN2C(=O)c1ccccc1 [Example 12, (3aR,6aS)-Quinoxaline-2-carboxylic acid [(1S)-1-(4-benzoyl-6-oxo-hexahydro-pyrrolo[3,2-b]pyrrole-1-carbonyl)-3-methyl-butyl]-amide] | > 5.30 | > 5.30 | > 5.30 | 
11 | CS(=O)(=O)c1ccccc1C(=O)N1CC(=O)[C@@H]2[C@H]1CCN2C(=O)[C@H](Cc1ccc(O)cc1)NC(=O)c1cccc(Br)c1 [Example 303, (3aR,6aS)-3-Bromo-N-{(1S)-1-(4-hydroxy-benzyl)-2-[4-(2-methanesulfonyl-benzoyl)-6-oxo-hexahydro-pyrrolo[3,2-b]pyrrole-1-yl]-2-oxo-ethyl}-benzamide] | > 5.30 | > 5.30 |  | 
12 | CC(C)C[C@H](NC(=O)c1ccc2ccccc2n1)C(=O)N1CC[C@@H]2[C@H]1C(=O)CN2C(=O)c1ccccc1 [Example 8, (3aR,6aS)-Quinoline-2-carboxylic acid [(1S)-1-(4-benzoyl-6-oxo-hexahydro-pyrrolo[3,2-b]pyrrole-1-carbonyl)-3-methyl-butyl]-amide] | > 5.30 | > 5.30 | > 5.30 | 
13 | CC(C)C[C@H](NC(=O)c1cnc2ccccc2n1)C(=O)N1CC[C@@H]2[C@H]1C(=O)CN2C(=O)c1cccnc1 [Example 19, (3aR,6aS)-Quinoxaline-2-carboxylic acid {(1S)-3-methyl-1-[6-oxo-4-(pyridine-3-carbonyl)-hexahydro-pyrrolo[3,2-b]pyrrole-1-carbonyl]-butyl}-amide] | > 5.30 | > 5.30 |  | 
14 | CC(C)C[C@H](NC(=O)c1cccc(CN)c1)C(=O)N1CC[C@@H]2[C@H]1C(=O)CN2S(=O)(=O)c1ccccc1 [Example 123, (3aR,6aS)-3-Aminomethyl-N-[(1S)-1-(4-benzenesulfonyl-6-oxo-hexahydro-pyrrolo[3,2-b]pyrrole-1-carbonyl)-3-methyl-butyl]-benzamide] | > 5.30 |  |  | 
15 | CC(C)C[C@H](NC(=O)c1cc2ccccc2o1)C(=O)N1CC[C@@H]2[C@H]1C(=O)CN2C(=O)c1ccccc1 [Example 9, (3aR,6aS)-Benzofuran-2-carboxylic acid [(1S)-1-(4-benzoyl-6-oxo-hexahydropyrrolo[3,2-b]pyrrole-1-carbonyl)-3-methyl-butyl]-amide] | > 5.30 | > 5.30 | > 5.30 | 
16 | CC(C)C[C@H](NC(=O)c1cccc(Oc2ccccc2)c1)C(=O)N1CC[C@@H]2[C@H]1C(=O)CN2C(=O)c1cccnc1 [Example 20, (3aR,6aS)-N-{(1S)-3-Methyl-1-[6-oxo-4-(pyridine-3-carbonyl)-hexahydro-pyrrolo[3,2-b]pyrrole-1-carbonyl]-butyl}-3-phenoxy-benzamide] | > 5.30 | > 5.30 |  | > 5.30
